Data reported in patent US20230270832A1, “MAGEA1 IMMUNOGENIC PEPTIDES, BINDING PROTEINS RECOGNIZING MAGEA1 IMMUNOGENIC PEPTIDES, AND USES THEREOF” (TScan Therapeutics, Inc., priority 2021, published 2023).

System: TCR-transduced T cells
Assay: Peptide-pulsed HLA-C*07:02 monoallelic HEK293T granzyme-activated fluorescent reporter cells co-cultured with TCR-transduced T cells
Type: cell-based, human
Description: Overlapping peptide sequences with a score >2.5 fold were used to predict MHC binding with NetMHC4.0 (available on the World Wide Web at cbs.dtu.dk) and the top predicted MHC binding peptides were synthesized (Genscript). Monoallelic C*07:02 HEK293T reporter cells were pulsed with serial dilutions 0-20,000 ng/ml of each peptide candidate for 1 hour and then co-cultured with TCR-transduced T cells (1-IN-32-39 or HN-32-41) at an E:T ratio of ˜1:1. After 4 hours, the cultures were harvested by pipetting and fluorescence of the reporter was detected using a CytoFLEX™ S instrument (Beckman Coulter). Additionally, monoallelic C*07:02 HEK293 suspension cells were pulsed with serial dilutions 0-500 pM of peptide VBFFFPSL (SEQ ID NO: 1) for 2 hours and then co-cultured with TCR-transduced T cells (HN-32-39 or HN-32-41) at an E:T ratio of 1:1 overnight. Cells were then harvested by pipetting and centrifuged at 2,000 rpm for 2 minutes. The supernatant was collected for IFNγ measurement using a human IFNγ 3rd generation single-plex assay (Protein Simple).

VRFFFPSL (listed as Homo sapiens) [VBFFFPSL]
immunogenicity in peptide validation (FIGS. 2D and 2E): most favorable immunogenicity | reactivity of the TCR-transduced T cells to peptide-pulsed reporter cells (epitope confirmation) (HLA-C*07:02 monoallelic HEK293T, granzyme-activated fluorescent reporter, FIGS. 2D and 2E left): minimal MAGEA1 epitope
